Experimental data: patent US20180200257A1, “METHODS FOR THE TREATMENT OF INFLAMMATORY DISORDERS” (Galapagos NV, priority 2015, published 2018)

Tested on: Subjects With Active Crohn's Disease With Evidence of Mucosal Ulceration
Assay: Study 3 - Creatinine levels
Assay type: in vivo, human
Conditions: for Study 3 - Creatinine Mean CFB / Study 3 - Creatinine Mean percentage CFB: 10 weeks results, 200 mg q.d.
Excerpt: Double-Blind, Randomized, Placebo-Controlled, Multi-Centre Study to Investigate the Efficacy and Safety of Compound 1 in Subjects With Active Crohn's Disease With Evidence of Mucosal Ulceration. This is a double-blind, randomized, placebo-controlled, multi-centre Phase 2 study to investigate the efficacy and safety of Compound 1 administered once daily for the treatment of active CD with evidence of mucosal ulceration. The pharmacokinetics (including a PK substudy) and pharmacodynamics of Compound 1 and metabolite in CD will also be characterised. A total of 180 eligible subjects will be randomized to receive Compound 1 or placebo in addition to their stable background treatment (eg, corticosteroids, aminosalicylates, or CD-related antibiotics). The study will consist of 2 parts, with total treatment duration of 20 weeks. Randomization in Part 1 will be stratified according the subject's previous anti-TNF exposure/response, CRP level at Screening, and oral corticosteroid use at visit Day −1. After the first 10 weeks of treatment in Part 1, patients will be re-randomized for Part 2 as shown in the diagram below and will be stratified according to the subject's clinical response, previous anti-TNF exposure/response, and oral corticosteroid use at visit Day -1. [table] Creatinine levels determination is available at Quest Diagnostics, Clinical Trials, Quest House, 125-135 Staines Road, Hounslow, Middlesex, TW3 3JB, United Kingdom under Catalogue n# 82565. For Study 3, the data are obtained at BARC Europe, 3B,Industrie Park, Zwijnaarde, B-9052 Ghent, Belgium. The Enzymatic method is based on the determination of sarcosine after conversion of creatinine with the aid of creatininase, creatinase, and sarcosine oxidase. The liberated hydrogen peroxide reacts with 4-aminophenazone and HTIB to form a quinone imine chromogen. The reaction is catalyzed by peroxidase. The color intensity is directly proportional to concentration of creatinine present and can be measured photometrically.

[1] = 200 mg q.d. continued to week 20 (N = 77), week 0
[2] = 200 mg q.d. continued to week 20 (N = 77), week 2
[3] = 200 mg q.d. continued to week 20 (N = 77), week 4
[4] = 200 mg q.d. continued to week 20 (N = 77), week 6
[5] = 200 mg q.d. continued to week 20 (N = 77), week 10
[6] = 200 mg q.d. continued to week 20 (N = 77), week 12
[7] = 200 mg q.d. continued to week 20 (N = 77), week 16
[8] = 200 mg q.d. continued to week 20 (N = 77), week 20
[9] = 200 mg q.d. week 0 to 10, to 100 mg q.d. week 10 to 20 (N = 30), week 0
[10] = 200 mg q.d. week 0 to 10, to 100 mg q.d. week 10 to 20 (N = 30), week 2
[11] = 200 mg q.d. week 0 to 10, to 100 mg q.d. week 10 to 20 (N = 30), week 4
[12] = 200 mg q.d. week 0 to 10, to 100 mg q.d. week 10 to 20 (N = 30), week 6
[13] = 200 mg q.d. week 0 to 10, to 100 mg q.d. week 10 to 20 (N = 30), week 10
[14] = 200 mg q.d. week 0 to 10, to 100 mg q.d. week 10 to 20 (N = 30), week 12
[15] = 200 mg q.d. week 0 to 10, to 100 mg q.d. week 10 to 20 (N = 30), week 16
[16] = 200 mg q.d. week 0 to 10, to 100 mg q.d. week 10 to 20 (N = 30), week 20
[17] = 200 mg q.d. week 0 to 10, to placebo week 10 to 20 (N = 23), week 0
[18] = 200 mg q.d. week 0 to 10, to placebo week 10 to 20 (N = 23), week 2
[19] = 200 mg q.d. week 0 to 10, to placebo week 10 to 20 (N = 23), week 4
[20] = 200 mg q.d. week 0 to 10, to placebo week 10 to 20 (N = 23), week 6
[21] = 200 mg q.d. week 0 to 10, to placebo week 10 to 20 (N = 23), week 10
[22] = 200 mg q.d. week 0 to 10, to placebo week 10 to 20 (N = 23), week 12
[23] = 200 mg q.d. week 0 to 10, to placebo week 10 to 20 (N = 23), week 16
[24] = 200 mg q.d. week 0 to 10, to placebo week 10 to 20 (N = 23), week 20
[25] = placebo week 0 to 10, to 100 mg q.d. week 10 to 20 (N = 22), week 12
[26] = placebo week 0 to 10, to 100 mg q.d. week 10 to 20 (N = 22), week 16
[27] = placebo week 0 to 10, to 100 mg q.d. week 10 to 20 (N = 22), week 20

In the case of `O=C(Nc1nc2cccc(-c3ccc(CN4CCS(=O)(=O)CC4)cc3)n2n1)C1CC1` [Compound 1, cyclopropanecarboxylic acid {5-[4-(1,1-dioxo-thiomorpholin-4-ylmethyl)-phenyl]-[1,2,4]triazolo[1,5-a]pyridin-2-yl}-amide], the “Creatinine Mean CFB” value [1] is reported as 0.0 µmol/L, the “Creatinine Mean percentage CFB” value [1] is reported as 0.0% and the “Creatinine Mean CFB” value [2] is reported as 2.22 µmol/L. For the same compound, the “Creatinine Mean percentage CFB” value [2] was 4.13%, the “Creatinine Mean CFB” value [3] was 3.93 µmol/L and the “Creatinine Mean percentage CFB” value [3] was 6.08%. For the same compound, the “Creatinine Mean CFB” value [4] was 2.51 µmol/L, the “Creatinine Mean percentage CFB” value [4] was 4.44% and the “Creatinine Mean CFB” value [5] was 6.00 µmol/L. For the same compound, the “Creatinine Mean percentage CFB” value [5] was 9.34%, the “Creatinine Mean CFB” value [6] was 4.02 µmol/L and the “Creatinine Mean percentage CFB” value [6] was 7.10%. For the same compound, the “Creatinine Mean CFB” value [7] was 1.81 µmol/L, the “Creatinine Mean percentage CFB” value [7] was 3.62% and the “Creatinine Mean CFB” value [8] was 3.20 µmol/L. For the same compound, the “Creatinine Mean percentage CFB” value [8] was 5.43%, the “Creatinine Mean CFB” value [9] was 0.0 µmol/L and the “Creatinine Mean percentage CFB” value [9] was 0.0%. For the same compound, the “Creatinine Mean CFB” value [10] was 3.36 µmol/L, the “Creatinine Mean percentage CFB” value [10] was 5.77% and the “Creatinine Mean CFB” value [11] was 4.98 µmol/L. For the same compound, the “Creatinine Mean percentage CFB” value [11] was 8.03%, the “Creatinine Mean CFB” value [12] was 4.00 µmol/L and the “Creatinine Mean percentage CFB” value [12] was 6.37%. The “Creatinine Mean CFB” value [13] was 6.48 µmol/L, the “Creatinine Mean percentage CFB” value [13] was 11.55% and the “Creatinine Mean CFB” value [14] was 2.92 µmol/L. For the same compound, the “Creatinine Mean percentage CFB” value [14] was 6.01%, the “Creatinine Mean CFB” value [15] was 4.89 µmol/L and the “Creatinine Mean percentage CFB” value [15] was 8.86%. For the same compound, the “Creatinine Mean CFB” value [16] was 3.43 µmol/L, the “Creatinine Mean percentage CFB” value [16] was 6.19% and the “Creatinine Mean CFB” value [17] was 0.0 µmol/L. The “Creatinine Mean percentage CFB” value [17] was 0.0%, the “Creatinine Mean CFB” value [18] was 1.95 µmol/L and the “Creatinine Mean percentage CFB” value [18] was 3.55%. The “Creatinine Mean CFB” value [19] was 3.83 µmol/L, the “Creatinine Mean percentage CFB” value [19] was 6.09% and the “Creatinine Mean CFB” value [20] was 2.15 µmol/L. The “Creatinine Mean percentage CFB” value [20] was 3.92%, the “Creatinine Mean CFB” value [21] was 5.88 µmol/L and the “Creatinine Mean percentage CFB” value [21] was 10.23%. The “Creatinine Mean CFB” value [22] was 1.84 µmol/L, the “Creatinine Mean percentage CFB” value [22] was 3.14% and the “Creatinine Mean CFB” value [23] was 0.47 µmol/L. The “Creatinine Mean percentage CFB” value [23] was 1.93%, the “Creatinine Mean CFB” value [24] was -0.26 µmol/L and the “Creatinine Mean percentage CFB” value [24] was 0.68%. For the same compound, the Study 3 - Creatinine Mean CFB (week 2) was 2.44 µM, the “Study 3 - Creatinine Mean percentage CFB” value (week 2) was 4.41% and the Study 3 - Creatinine Mean CFB (week 4) was 4.16 µM. The “Study 3 - Creatinine Mean percentage CFB” value (week 4) was 6.55%, the Study 3 - Creatinine Mean CFB (week 6) was 2.81 µM and the “Study 3 - Creatinine Mean percentage CFB” value (week 6) was 4.82%. For the same compound, the Study 3 - Creatinine Mean CFB (week 10) was 6.08 µM, the “Study 3 - Creatinine Mean percentage CFB” value (week 10) was 10.05% and the “Creatinine Mean CFB” value [25] was 3.09 µmol/L. For the same compound, the “Creatinine Mean percentage CFB” value [25] was 4.87%, the “Creatinine Mean CFB” value [26] was 4.33 µmol/L and the “Creatinine Mean percentage CFB” value [26] was 6.52%. For the same compound, the “Creatinine Mean CFB” value [27] was 3.11 µmol/L and the “Creatinine Mean percentage CFB” value [27] was 4.31%.
